Experimental data taken from patent US11434242B2, “Dopamine-b-hydroxylase inhibitors” (BIAL-PORTELA & Cª, S.A., priority 2017, dated 2022).

Molecular target: T1, Dopamine beta hydroxylase (Homo sapiens, UniProt P09172)
T1 construct: 125 μl of plasma; tissue Instituto Português do Sangue Transplantação; host or cells: human plasma from healthy donors
T1 sequence (P09172 40-617 limits assumed): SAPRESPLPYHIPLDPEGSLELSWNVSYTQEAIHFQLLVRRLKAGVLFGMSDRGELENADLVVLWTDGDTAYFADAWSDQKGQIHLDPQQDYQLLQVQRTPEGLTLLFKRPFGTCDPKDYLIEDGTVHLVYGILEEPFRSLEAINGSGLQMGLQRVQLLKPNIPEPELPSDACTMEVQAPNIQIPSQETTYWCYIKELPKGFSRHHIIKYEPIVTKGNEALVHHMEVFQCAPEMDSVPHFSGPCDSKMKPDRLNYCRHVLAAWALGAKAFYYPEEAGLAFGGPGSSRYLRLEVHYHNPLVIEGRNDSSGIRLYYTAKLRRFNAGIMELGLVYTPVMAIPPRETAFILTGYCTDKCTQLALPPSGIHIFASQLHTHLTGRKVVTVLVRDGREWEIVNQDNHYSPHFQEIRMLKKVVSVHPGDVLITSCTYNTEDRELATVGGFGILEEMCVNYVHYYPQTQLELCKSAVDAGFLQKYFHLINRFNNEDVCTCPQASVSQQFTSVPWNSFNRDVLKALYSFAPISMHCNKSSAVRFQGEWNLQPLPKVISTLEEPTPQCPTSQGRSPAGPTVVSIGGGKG
Experiment: Dopamine beta hydroxylase activity in human plasma
Assay type: biochemical
Conditions: for Plasma (0.01 μM), activity in % of control: inhibitor 0.01 μM; for Plasma (0.1 μM), activity in % of control: inhibitor 0.1 μM
Procedure, shortened: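 Healthy-donor human plasma pre-incubated 10 min at 37° C with compound at final 10, 100 or 1000 nM in pH 5.0 acetate buffer with ascorbate, fumarate, pargyline, N-ethylmaleimide, catalase and copper sulfate. Tyramine substrate then added for 45 min; octopamine formed was isolated by SCX cartridge, periodate-converted and read at 330 nm; activity given as % control.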

Compound	Plasma (0.01 μM), activity in % of control	Plasma (0.1 μM), activity in % of control
Cn1c(CC(=O)N2CCOCC2)c2n(c1=S)C[C@@]1(c3c(F)ccc(Cl)c3F)C[C@@H]21 [Example 421, 2-((5aS,6aR)-5a-(3-chloro-2,6-difluorophenyl)-2-methyl-3-thioxo-2,3,5,5a,6,6a-hexahydrocyclopropa[3,4]pyrrolo[1,2-c]imidazol-1-yl)-1-morpholinoethan-1-one]	26.1 % of control	5.8 % of control
Cn1c(CC(=O)N2CCOCC2)c2n(c1=S)C[C@@]1(c3cc(Cl)ccc3F)C[C@@H]21 [Example 422, 2-((5aS,6aR)-5a-(5-chloro-2-fluorophenyl)-2-methyl-3-thioxo-2,3,5,5a,6,6a-hexahydrocyclopropa[3,4]pyrrolo[1,2-c]imidazol-1-yl)-1-morpholinoethan-1-one]	68.1 % of control	23.2 % of control
Cn1c(CC(=O)NC2CCOCC2)c2n(c1=S)C[C@@]1(c3c(F)ccc(Cl)c3F)C[C@@H]21 [Example 423, 2-((5aS,6aR)-5a-(3-chloro-2,6-difluorophenyl)-2-methyl-3-thioxo-2,3,5,5a,6,6a-hexahydrocyclopropa[3,4]pyrrolo[1,2-c]imidazol-1-yl)-N-(tetrahydro-2H-pyran-4-yl)acetamide]	18.5 % of control	1.7 % of control
Cn1c(CC(=O)O)c2n(c1=S)C[C@H](c1c(F)ccc(Cl)c1F)C2 [Example 424, (S)-2-(6-(3-chloro-2,6-difluorophenyl)-2-methyl-3-thioxo-2,5,6,7-tetrahydro-3H-pyrrolo[1,2-c]imidazol-1-yl)acetic acid]	59.5 % of control	20.6 % of control
Cn1c(CC(=O)N[C@@H]2CCOC2)c2n(c1=S)C[C@H](c1cc(F)cc(F)c1)C2 [Example 425, 2-((S)-6-(3,5-difluorophenyl)-2-methyl-3-thioxo-2,5,6,7-tetrahydro-3H-pyrrolo[1,2-c]imidazol-1-yl)-N—((R)-tetrahydrofuran-3-yl)acetamide]	78.6 % of control	52.0 % of control
Cn1c(CC(=O)N[C@H]2CCOC2)c2n(c1=S)C[C@H](c1cc(F)cc(F)c1)C2 [Example 426, 2-((S)-6-(3,5-difluorophenyl)-2-methyl-3-thioxo-2,5,6,7-tetrahydro-3H-pyrrolo[1,2-c]imidazol-1-yl)-N—((S)-tetrahydrofuran-3-yl)acetamide]	83.5 % of control	66.3 % of control
Cn1c(CC(=O)NCC2CCOCC2)c2n(c1=S)C[C@H](c1c(F)ccc(F)c1F)C2 [Example 427, (S)-2-(2-methyl-3-thioxo-6-(2,3,6-trifluorophenyl)-2,5,6,7-tetrahydro-3H-pyrrolo[1,2-c]imidazol-1-yl)-N-((tetrahydro-2H-pyran-4-yl)methyl)acetamide]	78.1 % of control	34.2 % of control
Cn1c(CC(=O)NCC2CCOCC2)c2n(c1=S)C[C@H](c1cc(F)cc(F)c1)C2 [Example 428, (S)-2-(6-(3,5-difluorophenyl)-2-methyl-3-thioxo-2,5,6,7-tetrahydro-3H-pyrrolo[1,2-c]imidazol-1-yl)-N-((tetrahydro-2H-pyran-4-yl)methyl)acetamide]	68.2 % of control	32.3 % of control
CN(C(=O)Cc1c2n(c(=S)n1C)C[C@H](c1c(F)ccc(Cl)c1F)C2)C1COC1 [Example 429, (S)-2-(6-(3-chloro-2,6-difluorophenyl)-2-methyl-3-thioxo-2,5,6,7-tetrahydro-3H-pyrrolo[1,2-c]imidazol-1-yl)-N-methyl-N-(oxetan-3-yl)acetamide]	37.8 % of control	5.8 % of control
CN(Cc1cnn(C)c1)C(=O)Cc1c2n(c(=S)n1C)C[C@H](c1c(F)ccc(Cl)c1F)C2 [Example 430, (S)-2-(6-(3-chloro-2,6-difluorophenyl)-2-methyl-3-thioxo-2,5,6,7-tetrahydro-3H-pyrrolo[1,2-c]imidazol-1-yl)-N-methyl-N-((1-methyl-1H-pyrazol-4-yl)methyl)acetamide]	25.3 % of control	2.2 % of control
CN(C(=O)Cc1c2n(c(=S)n1C)C[C@@]1(c3cc(Cl)ccc3F)C[C@@H]21)C1COC1 [Example 431, 2-((5aS,6aR)-5a-(5-chloro-2-fluorophenyl)-2-methyl-3-thioxo-2,3,5,5a,6,6a-hexahydrocyclopropa[3,4]pyrrolo[1,2-c]imidazol-1-yl)-N-methyl-N-(oxetan-3-yl)acetamide]	54.3 % of control	10.1 % of control
Cn1c(CC(=O)NC2COC2)c2n(c1=S)C[C@H](c1c(F)ccc(F)c1F)C2 [Example 432, (S)-2-(2-methyl-3-thioxo-6-(2,3,6-trifluorophenyl)-2,5,6,7-tetrahydro-3H-pyrrolo[1,2-c]imidazol-1-yl)-N-(oxetan-3-yl)acetamide]	79.7 % of control	43.7 % of control
Cn1c(CC(=O)NC2COC2)c2n(c1=S)C[C@@]1(c3cc(Cl)ccc3F)C[C@@H]21 [Example 433, 2-((5aS,6aR)-5a-(5-chloro-2-fluorophenyl)-2-methyl-3-thioxo-2,3,5,5a,6,6a-hexahydrocyclopropa[3,4]pyrrolo[1,2-c]imidazol-1-yl)-N-(oxetan-3-yl)acetamide]	56.9 % of control	9.2 % of control
CN(C(=O)Cc1c2n(c(=S)n1C)C[C@@]1(c3cc(Cl)ccc3F)C[C@@H]21)C1CCOCC1 [Example 434, 2-((5aS,6aR)-5a-(5-chloro-2-fluorophenyl)-2-methyl-3-thioxo-2,3,5,5a,6,6a-hexahydrocyclopropa[3,4]pyrrolo[1,2-c]imidazol-1-yl)-N-methyl-N-(tetrahydro-2H-pyran-4-yl)acetamide]	52.5 % of control	8.5 % of control
CN(C(=O)Cc1c2n(c(=S)n1C)C[C@H](c1c(F)ccc(F)c1F)C2)C1COC1 [Example 435, (S)—N-methyl-2-(2-methyl-3-thioxo-6-(2,3,6-trifluorophenyl)-2,5,6,7-tetrahydro-3H-pyrrolo[1,2-c]imidazol-1-yl)-N-(oxetan-3-yl)acetamide]	66.5 % of control	36.6 % of control
Cn1c(CC(=O)N2CCOCC2)c2n(c1=S)C[C@@]1(c3cc(Br)ccc3F)C[C@@H]21 [Example 436, 2-((5aS,6aR)-5a-(5-bromo-2-fluorophenyl)-2-methyl-3-thioxo-2,3,5,5a,6,6a-hexahydrocyclopropa[3,4]pyrrolo[1,2-c]imidazol-1-yl)-1-morpholinoethan-1-one]	73.6 % of control	23.9 % of control
Cn1c(CC(=O)NC2COC2)c2n(c1=S)C[C@@]1(c3cc(Br)ccc3F)C[C@@H]21 [Example 437, 2-((5aS,6aR)-5a-(5-bromo-2-fluorophenyl)-2-methyl-3-thioxo-2,3,5,5a,6,6a-hexahydrocyclopropa[3,4]pyrrolo[1,2-c]imidazol-1-yl)-N-(oxetan-3-yl)acetamide]	62.7 % of control	6.1 % of control
CN(C(=O)Cc1c2n(c(=S)n1C)C[C@@]1(c3cc(Br)ccc3F)C[C@@H]21)C1COC1 [Example 438, 2-((5aS,6aR)-5a-(5-bromo-2-fluorophenyl)-2-methyl-3-thioxo-2,3,5,5a,6,6a-hexahydrocyclopropa[3,4]pyrrolo[1,2-c]imidazol-1-yl)-N-methyl-N-(oxetan-3-yl)acetamide]	64.0 % of control	7.5 % of control
CN(C(=O)Cc1c2n(c(=S)n1C)C[C@@]1(c3cc(Br)ccc3F)C[C@@H]21)C1CCOCC1 [Example 439, 2-((5aS,6aR)-5a-(5-bromo-2-fluorophenyl)-2-methyl-3-thioxo-2,3,5,5a,6,6a-hexahydrocyclopropa[3,4]pyrrolo[1,2-c]imidazol-1-yl)-N-methyl-N-(tetrahydro-2H-pyran-4-yl)acetamide]	67.2 % of control	11.8 % of control
CN(C(=O)Cc1c2n(c(=S)n1C)C[C@@]1(c3cc(Br)ccc3F)C[C@@H]21)C1CCOC1 (stereo partly drawn) [Example 440, 2-((5aS,6aR)-5a-(5-bromo-2-fluorophenyl)-2-methyl-3-thioxo-2,3,5,5a,6,6a-hexahydrocyclopropa[3,4]pyrrolo[1,2-c]imidazol-1-yl)-N-methyl-N-(tetrahydrofuran-3-yl)acetamide]	57.2 % of control	8.4 % of control
